Data as given in US8481597B2, “Use of (-) (3-trihalomethylphenoxy) (4-halophenyl) acetic acid derivatives for treatment of insulin resistance, type 2 diabetes, hyperlipidemia and hyperuricemia” (Metabolex, Inc., priority 1999, dated 2013).
“Also recorded” adds a separate entry of the source.

What was measured:
C57BL/6J ob/ob mice [1] = assay: Glucose lowering of (±) and (−) halofenate analogs in ob/ob mice (Example 12); assay type: in vivo; conditions: for time points with significantly reduced plasma glucose concentrations: 150 mg/kg oral single dose
C57BL/6J ob/ob mice [2] = assay: Glucose and insulin lowering on daily oral administration in diabetic ob/ob mice (Example 9); assay type: in vivo; conditions: for plasma glucose relative to control animals, in words / plasma insulin relative to vehicle control, in words: daily oral, racemate 250 mg/kg/day, enantiomers 125 and 250 mg/kg/day
Procedure: The gavage volume was 10 ml/kg.

C57BL/6J ob/ob mice [3] = assay: Time course of glucose-lowering after a single oral dose in diabetic ob/ob mice (Example 8); assay type: in vivo; conditions: single oral dose 250 mg/kg; for plasma glucose at 24 hours: vehicle 408±16.2
[4] = cited from earlier work
[5] = system: Zucker diabetic fatty (ZDF) rats; assay: Lipid lowering in Zucker Diabetic Fatty rats (Example 11); assay type: in vivo; conditions: for plasma cholesterol, in words: Experiment I, 13 days, racemate 50 mg/kg/day, enantiomers 25 mg/kg/day
Procedure: Male Zucker diabetic fatty (ZDF) rats were obtained from GMI Laboratories (Indianapolis, Ind.) at 9 weeks of age. Vehicle or enantiomers of halofenate administered by oral gavage on a daily basis starting at 74 days of age. Initial blood samples were obtained for analysis one day before treatment and at the indicated times in the treatment protocol. Blood was analyzed for plasma triglyceride and cholesterol by standard techniques.

Zucker fa/fa rats [6] = assay: Oral glucose challenge in Zucker fatty rats (Example 10); assay type: in vivo; conditions: racemate 100 mg/kg, enantiomers 50 and 100 mg/kg
Procedure: (§1) Prior to treatment, rats were assigned to 6 groups based on body weight. Each treatment group consisted of 8 rats. […] The gavage volume was 10 ml/kg. All rats received an oral glucose challenge (1.9 g/kg) 5.5 hours after the treatment and 4 hours after withdrawal of the food. Blood samples were taken at 0, 15, 30, 60, 90, 120, and 180 minutes following the glucose challenge for plasma glucose measurement. […] On day 5, rats received the intravenous insulin (0.75 U/kg) 5.5 hours after the last dose and 4 hours after withdrawal of the food. Blood samples were taken at 3, 6, 9, 12, 15 and 18 minutes following the insulin injection for plasma glucose measurement.

cyclooxygenase 1 (COX-1) = biological target: T1, cyclooxygenase 1 (COX-1) (Homo sapiens, UniProt P23219); assay: COX-1 inhibition in human whole blood assay, TXB2 production (Example 19); assay type: cell-based
T1 construct: was conducted using fresh human blood from healthy donors; endogenous in cells; host or cells: heparinized fresh human whole blood, stimulated with calcium ionophore A23187
T1 sequence (P23219 24-599): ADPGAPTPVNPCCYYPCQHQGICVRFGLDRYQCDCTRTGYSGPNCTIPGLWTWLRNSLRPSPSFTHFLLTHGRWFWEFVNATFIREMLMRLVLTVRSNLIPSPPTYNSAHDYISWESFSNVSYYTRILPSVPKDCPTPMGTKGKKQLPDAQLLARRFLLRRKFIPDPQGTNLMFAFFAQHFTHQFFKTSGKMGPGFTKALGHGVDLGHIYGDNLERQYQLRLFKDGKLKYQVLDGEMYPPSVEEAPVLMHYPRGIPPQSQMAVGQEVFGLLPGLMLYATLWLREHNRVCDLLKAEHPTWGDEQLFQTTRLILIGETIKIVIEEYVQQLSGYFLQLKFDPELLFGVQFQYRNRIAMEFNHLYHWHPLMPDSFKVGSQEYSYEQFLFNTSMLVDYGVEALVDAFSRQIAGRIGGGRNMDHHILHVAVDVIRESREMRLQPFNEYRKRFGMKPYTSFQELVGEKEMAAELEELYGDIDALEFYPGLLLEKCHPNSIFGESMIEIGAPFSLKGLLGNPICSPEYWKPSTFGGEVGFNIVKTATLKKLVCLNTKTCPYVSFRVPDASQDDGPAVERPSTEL
Procedure: An assay for cyclooxygenase 1 (COX-1) inhibition by the compounds of the present invention was conducted using fresh human blood from healthy donors. […] The enzyme was activated by the commercially available calcium ionophore A23187.
This bioassay is based on the production of thromboxane B2 (TXB2) after COX-1 activation. When activated, COX-1 generates prostaglandin H2 which is then converted to thromboxane A2 (TXA2) by thromboxane synthase and then finally to thromboxane B2 by non-enzymatic […]. In addition, PGE2 levels were measured to exclude inhibition of thromboxane synthase. This assay allows discrimination between COX-1 and thromboxane synthase inhibition.
TXB2 and PGE2 were measured by commercially available immunoassay kits purchased from Assay Designs, Inc. (Ann Arbor, Mich.). All other chemicals were from Sigma except as noted. […] Immediately before use, all compounds were diluted 1:10 in RPMI-1640 medium (Gibco BRL, 11875-093) to make a 10× concentrated stock solution. The 10×RPMI-1640 stock solutions of the calcium ionophore were prepared in an identical manner. […] COX-1 was then activated by adding 25 microliters of the 10× stock solution of 25 micromolar calcium ionophore. The plates were shaken for 10 minutes at room temperature and then incubated at 37° C. for an additional 30 minutes. After these incubation times, the plates were centrifuged at 2,000 g for 5 minutes. Two microliters of plasma were taken from each reaction for the measurement of TXB2 using an enzyme immunoassay kit from Assay Designs, Inc. The PGE2 level in the same reaction was measured using a PGE2 enzyme immunoassay kit from Assay Designs, Inc.
The results of the assay are presented as the percent inhibition of COX-1 activity.

[7] = system: oxonic acid induced hyperuricemic rats; assay: Plasma uric acid in oxonic acid induced hyperuricemic rats (Example 17); assay type: in vivo, SD rats; conditions: oral 50 mg/kg for 3 days, 100 mg/kg on the 4th day; blood 6 hours post gavage on day 4
Excerpt: Male SD rats, weight 275-300 g were purchased from Charles River. […] To establish a hyperuricemic state, animals were put on a diet containing 2.5% (w/w) of oxonic acid (Sigma Chemical Co, St. Louis, Mo., USA) throughout the experiment. Oxonic acid elevates plasma uric acid by inhibiting uricase. Rats were screened for plasma uric acid levels 3 days after they were placed on the diet, and those that had extreme plasma uric acid levels were excluded. Rats were assigned to one of three groups and the mean uric acid levels were equivalent in each group. […] Oxonic acid was delivered in a liquid formulation containing 0.9% (w/v) methylcellulose. The gavage and injection volumes were 5 ml/kg. Blood samples were taken at 6 hours post oral gavage on day 4. Plasma uric acid levels were determined colorimetrically using the Infinity Uric Acid Reagent (Sigma Chemical Co, St. Louis, Mo., USA).

Zucker fa/fa rats [8] = assay: Short insulin tolerance test in Zucker fatty rats (Example 10); assay type: in vivo; conditions: 50 mg/kg/day oral for 5 days
Procedure: as §1

ZDF rats = assay: Plasma glucose in ZDF rats, (−) halofenate vs (+) halofenate (Example 13); assay type: in vivo; conditions: 50 mg/kg oral once a day for 3 days
Procedure: Male 8-9 week old ZDF rats were purchased from Genetic Models, Inc. (Indianapolis, Ind.). […] Rats that had 4-hour fasting plasma glucose levels between 200 and 500 mg/dL were used. […] The gavage volume was 5 ml/kg. Blood samples were taken at 5 hours post dose on day 2 and 3.

CYP2C9 = CYP2C9 (Homo sapiens, UniProt P11712)
Chain of CYP2C9 (P11712 whole entry): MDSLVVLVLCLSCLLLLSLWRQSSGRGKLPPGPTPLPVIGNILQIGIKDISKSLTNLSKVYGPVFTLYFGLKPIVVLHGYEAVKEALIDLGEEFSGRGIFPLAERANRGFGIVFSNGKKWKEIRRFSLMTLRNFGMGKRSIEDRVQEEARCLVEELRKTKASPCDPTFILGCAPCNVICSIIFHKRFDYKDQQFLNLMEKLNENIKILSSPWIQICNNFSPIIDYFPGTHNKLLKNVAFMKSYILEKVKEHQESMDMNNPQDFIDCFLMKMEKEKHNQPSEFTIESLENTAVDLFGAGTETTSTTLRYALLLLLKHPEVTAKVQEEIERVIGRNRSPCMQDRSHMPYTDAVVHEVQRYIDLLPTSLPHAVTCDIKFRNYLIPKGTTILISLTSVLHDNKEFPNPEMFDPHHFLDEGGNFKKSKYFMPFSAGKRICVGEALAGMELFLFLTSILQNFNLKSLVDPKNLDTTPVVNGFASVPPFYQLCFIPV

[9] = Experiment II, 37.5 mg/kg/day (High dose)

CN(C)CCOC(=O)C(Oc1cccc(C(F)(F)F)c1)c1ccc(Cl)cc1 (racemic) [(±)Analog 35]
6 hours Glucose (C57BL/6J ob/ob mice [1]; 125 mg/kg oral once a day, 6 hours after first dose): 319.6 ± 26.7 mg/dL | 30 hours Glucose (C57BL/6J ob/ob mice [1]; 125 mg/kg oral once a day, 6 hours after second dose): 276.8 ± 17.6 mg/dL | 54 hours Glucose (C57BL/6J ob/ob mice [1]; 125 mg/kg oral once a day, 6 hours after third dose): 286.2 ± 31.5 mg/dL | Predose Glucose (C57BL/6J ob/ob mice [1]; baseline before dosing, group later given 125 mg/kg oral once a day): 387.0 ± 18.0 mg/dL

CN(C)C(=O)COC(=O)C(Oc1cccc(C(F)(F)F)c1)c1ccc(Cl)cc1 (single isomer, unassigned; (-)) [(−)Analog 38]
time points with significantly reduced plasma glucose concentrations (C57BL/6J ob/ob mice [1]): 6 h

CC(=O)NCCOC(=O)C(Oc1cccc(C(F)(F)F)c1)c1ccc(Cl)cc1 (racemic) [racemic halofenate, 2-acetamidoethyl (4-chlorophenyl) (3-trifluoromethylphenoxy)acetate, reference compound]
plasma glucose relative to control animals, in words (C57BL/6J ob/ob mice [2]): Significant decreases in glucose levels | plasma insulin relative to vehicle control, in words (C57BL/6J ob/ob mice [2]): insulins were lower | time course of glucose-lowering, in words (C57BL/6J ob/ob mice [3]): significantly reduced plasma glucose concentrations at most of the timepoints | time of peak glucose-lowering activity (C57BL/6J ob/ob mice [3]): 9 h | plasma glucose at 24 hours (C57BL/6J ob/ob mice [3]): 259.3 ± 20.8 mg/dL | side effects in patients ([4]; previous clinical studies (Friedberg et al. 1986)): gastrointestinal bleeding from stomach and peptic ulcers; also recorded: increased risk of gastrointestinal side effects such as upper gastrointestinal ulcers and bleeding | effect on glucose in patients with diabetes treated with the drug alone ([4]; previous studies from the 1970's): minimal effect on glucose | plasma cholesterol, in words [5]: plasma cholesterol declined with treatment | incremental glucose area under the curve (AUC) relative to vehicle control, in words (Zucker fa/fa rats [6]): not statistically significant | plasma glucose after oral glucose challenge, in words (Zucker fa/fa rats [6]; single oral dose 5.5 hours before challenge): The plasma glucose was reduced | IC50 (cyclooxygenase 1 (COX-1)): ~1000 µM

O=C(NCCOC(=O)C(Oc1cccc(C(F)(F)F)c1)c1ccc(Cl)cc1)c1ccccc1 (single isomer, unassigned; (-)) [(−)Analog 36]
time points with significantly reduced plasma glucose concentrations (C57BL/6J ob/ob mice [1]): 6 h

CC(=O)NCCOC(=O)C(Oc1cccc(C(F)(F)F)c1)c1ccc(Br)cc1 (single isomer, unassigned; (-)) [(−)Analog 29]
time points with significantly reduced plasma glucose concentrations (C57BL/6J ob/ob mice [1]): 6 h

NC(=O)COC(=O)C(Oc1cccc(C(F)(F)F)c1)c1ccc(Cl)cc1 (racemic) [(±)Analog 37]
time points with significantly lowered plasma glucose concentrations (C57BL/6J ob/ob mice [1]; 125 mg/kg oral once a day): 54 h

NC(=O)COC(=O)C(Oc1cccc(C(F)(F)F)c1)c1ccc(Cl)cc1 (single isomer, unassigned; (-)) [(−)Analog 37]
time points with significantly reduced plasma glucose concentrations (C57BL/6J ob/ob mice [1]): 6 h

CC(=O)NCCOC(=O)C(Oc1cccc(C(F)(F)F)c1)c1ccc(Cl)cc1 (single isomer, unassigned; (+)) [(+) halofenate, (+) 2-Acetamidoethyl 4-Chlorophenyl-(3-trifluoromethylphenoxy)-acetate, reference compound]
overnight fasting plasma insulin after 5 days treatment, in words (C57BL/6J ob/ob mice [2]; 125 mg/kg/day oral, ob/ob mice): did not lower plasma insulin | overnight fasting plasma insulin after 5 days treatment, in words (C57BL/6J ob/ob mice [2]; 250 mg/kg/day oral, ob/ob mice): resulted in a decrease in plasma insulin | plasma glucose following an overnight fast after 5 days treatment (C57BL/6J ob/ob mice [2]; 250 mg/kg/day oral, ob/ob mice, control 185.4±12.3): 127.2 ± 9.7 mg/dL | plasma glucose relative to control animals, in words (C57BL/6J ob/ob mice [2]): Significant decreases in glucose levels | plasma insulin relative to vehicle control, in words (C57BL/6J ob/ob mice [2]): insulins were lower | earliest time of plasma glucose reduction / significant activity (C57BL/6J ob/ob mice [3]): 4.5 h | time of peak glucose-lowering activity (C57BL/6J ob/ob mice [3]): 7.5 h | plasma glucose at 24 hours (C57BL/6J ob/ob mice [3]): 306 ± 28.5 mg/dL | plasma cholesterol, in words [5]: remained relatively constant | days of treatment with significantly lower plasma cholesterol vs control [5, 9]: 7 days | plasma triglyceride, in words [5, 9]: significant lowering of plasma triglyceride | plasma uric acid levels, in words [7]: lowered plasma uric acid levels, but it was not statistically significant | incremental glucose area under the curve (AUC) relative to vehicle control, in words (Zucker fa/fa rats [6]): not statistically significant | insulin sensitivity (slope of decline in glucose after i.v. insulin), in words (Zucker fa/fa rats [8]): small effect on insulin sensitivity that was not significantly different from the vehicle-treated control | plasma glucose concentrations compared to vehicle-treated animals, in words (ZDF rats): failed to reduce plasma glucose concentrations

Nc1ccc(S(=O)(=O)Nc2ccnn2-c2ccccc2)cc1 [SFZ, sulfaphenazole, reference compound]
4-OH TB Production (CYP2C9): BQL | % Inhibition (Tolbutamide, CYP2C9) (CYP2C9; both, human, microsomes): ~100%
